ChEMBL document CHEMBL6074678, “Selectively Antagonizing the NOD1-Mediated Inflammatory Signaling Pathway Mitigates the Gastric Inflammation Induced by Helicobacter pylori Infection” (J Med Chem, 2024)
Converted amounts (≈) assume the structure as drawn.

Experiments:
[1] = target: T1, Nucleotide-binding oligomerization domain-containing protein 1 (Homo sapiens, UniProt Q9Y239); assay: Antagonist activity at human NOD1 expressed in HEK-Blue cells assessed as decrease in SEAP secretion incubated for 3 hrs followed by C12-iE-DAP stimulation for 20 hrs by spectrophotometry; format: cell-based, HEK-Blue hNOD1
T1 sequence (Q9Y239 whole entry): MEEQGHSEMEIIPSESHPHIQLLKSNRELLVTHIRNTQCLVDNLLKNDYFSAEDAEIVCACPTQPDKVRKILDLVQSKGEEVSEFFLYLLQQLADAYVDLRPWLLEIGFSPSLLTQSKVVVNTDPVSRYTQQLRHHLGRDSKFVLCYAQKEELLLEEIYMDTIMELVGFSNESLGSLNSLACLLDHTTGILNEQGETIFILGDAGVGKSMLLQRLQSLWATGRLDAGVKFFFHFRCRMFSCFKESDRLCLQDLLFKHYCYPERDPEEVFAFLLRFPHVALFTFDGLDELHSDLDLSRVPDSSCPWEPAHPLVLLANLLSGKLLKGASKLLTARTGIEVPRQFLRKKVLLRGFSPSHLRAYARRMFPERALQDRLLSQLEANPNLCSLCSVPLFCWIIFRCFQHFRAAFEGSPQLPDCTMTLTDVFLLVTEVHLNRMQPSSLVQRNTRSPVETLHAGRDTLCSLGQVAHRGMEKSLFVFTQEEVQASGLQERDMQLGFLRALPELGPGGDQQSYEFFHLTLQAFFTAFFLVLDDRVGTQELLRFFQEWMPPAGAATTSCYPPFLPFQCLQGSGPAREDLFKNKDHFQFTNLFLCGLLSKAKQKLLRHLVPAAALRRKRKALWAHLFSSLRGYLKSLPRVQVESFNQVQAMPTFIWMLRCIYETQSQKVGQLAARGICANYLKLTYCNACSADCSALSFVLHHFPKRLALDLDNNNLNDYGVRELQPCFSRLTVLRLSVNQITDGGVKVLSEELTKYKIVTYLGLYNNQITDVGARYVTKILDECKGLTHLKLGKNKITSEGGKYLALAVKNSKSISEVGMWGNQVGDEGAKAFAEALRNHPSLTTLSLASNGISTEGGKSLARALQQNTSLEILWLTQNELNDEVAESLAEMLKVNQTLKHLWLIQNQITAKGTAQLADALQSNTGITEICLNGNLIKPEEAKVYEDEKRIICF

[2] = target: T2, Nucleotide-binding oligomerization domain-containing protein 1 (Mus musculus, UniProt Q8BHB0); assay: Antagonist activity at mouse NOD1 expressed in HEK-Blue cells assessed as decrease in SEAP secretion incubated for 3 hrs followed by C12-iE-DAP stimulation for 20 hrs by spectrophotometry; format: cell-based, HEK-Blue mNOD1
T2 sequence (Q8BHB0 whole entry): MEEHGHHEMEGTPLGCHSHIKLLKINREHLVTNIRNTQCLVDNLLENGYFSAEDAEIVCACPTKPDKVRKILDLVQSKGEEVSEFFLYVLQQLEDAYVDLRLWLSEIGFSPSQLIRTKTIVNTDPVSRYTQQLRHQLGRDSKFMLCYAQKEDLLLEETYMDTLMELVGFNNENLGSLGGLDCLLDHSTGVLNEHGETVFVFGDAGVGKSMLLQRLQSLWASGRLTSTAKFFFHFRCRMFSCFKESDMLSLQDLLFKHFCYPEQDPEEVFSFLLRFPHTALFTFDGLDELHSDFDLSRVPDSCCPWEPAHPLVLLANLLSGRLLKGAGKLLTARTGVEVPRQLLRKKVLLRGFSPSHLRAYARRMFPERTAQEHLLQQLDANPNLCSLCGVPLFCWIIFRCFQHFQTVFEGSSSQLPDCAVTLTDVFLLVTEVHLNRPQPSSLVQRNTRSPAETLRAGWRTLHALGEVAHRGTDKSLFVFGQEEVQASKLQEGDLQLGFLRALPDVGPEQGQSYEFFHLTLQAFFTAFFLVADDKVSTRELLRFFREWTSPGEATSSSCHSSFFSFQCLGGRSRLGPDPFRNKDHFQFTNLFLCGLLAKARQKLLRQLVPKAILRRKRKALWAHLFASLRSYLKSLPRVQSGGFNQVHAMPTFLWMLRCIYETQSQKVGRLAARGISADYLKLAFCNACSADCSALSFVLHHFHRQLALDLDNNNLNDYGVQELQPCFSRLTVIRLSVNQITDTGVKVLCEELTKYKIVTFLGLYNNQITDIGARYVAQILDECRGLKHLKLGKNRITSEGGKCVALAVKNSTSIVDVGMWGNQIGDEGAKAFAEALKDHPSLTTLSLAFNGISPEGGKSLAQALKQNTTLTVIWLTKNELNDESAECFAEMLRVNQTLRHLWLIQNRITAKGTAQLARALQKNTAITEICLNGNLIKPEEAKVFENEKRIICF

[3] = target: T3, Nucleotide-binding oligomerization domain-containing protein 1 (Mus musculus) (UniProt Q8BHB0); assay: Antagonist activity at mouse NOD1 expressed in HEK-Blue cells assessed as decrease in SEAP secretion at 1 uM incubated for 3 hrs followed by C12-iE-DAP stimulation for 20 hrs by spectrophotometry relative to control; format: cell-based; details: HEK-Blue mNOD1, filed as antagonist, time 23.0 hrs
T3 sequence (whole entry): T2 sequence (Q8BHB0 whole entry)

[4] = Metabolic stability in human liver microsomes assessed as half life at 1.25 uM preincubated for 5 mins followed by NADPH addition measured upto 120 mins by LC-MS/MS analysis; format: ADME, Microsome; details: time < 125 min
[5] = Metabolic stability in human liver microsomes assessed as intrinsic clearance at 1.25 uM preincubated for 5 mins followed by NADPH addition measured upto 120 mins by LC-MS/MS analysis; format: ADME, Microsome; details: time < 125 min, read-out: CLH
[6] = Metabolic stability in human liver microsomes assessed as hepatic clearance at 1.25 uM preincubated for 5 mins followed by NADPH addition measured upto 120 mins by LC-MS/MS analysis; format: ADME, Microsome; details: time < 125 min
[7] = Metabolic stability in mouse liver microsomes assessed as half life at 1.25 uM preincubated for 5 mins followed by NADPH addition measured upto 120 mins by LC-MS/MS analysis; format: ADME, Microsome; details: time < 125 min
[8] = Metabolic stability in mouse liver microsomes assessed as intrinsic clearance at 1.25 uM preincubated for 5 mins followed by NADPH addition measured upto 120 mins by LC-MS/MS analysis; format: ADME, Microsome; details: time < 125 min, read-out: CLH
[9] = Metabolic stability in mouse liver microsomes assessed as hepatic clearance at 1.25 uM preincubated for 5 mins followed by NADPH addition measured upto 120 mins by LC-MS/MS analysis; format: ADME, Microsome; details: time < 125 min
[10] = Metabolic stability in mouse hepatocytes assessed as intrinsic clearance measured per million cells at 10 uM measured after 120 mins by LC-MS analysis; format: ADME, cell-based, Hepatocyte; details: 2 h
[11] = Metabolic stability in mouse hepatocytes assessed as half life at 10 uM measured after 120 mins by LC-MS analysis; format: ADME, cell-based, Hepatocyte
[12] = Metabolic stability in human hepatocytes assessed as hepatic clearance at 10 uM measured after 120 mins by LC-MS analysis; format: ADME, cell-based, Hepatocyte
[13] = Metabolic stability in human hepatocytes assessed as half life at 10 uM measured after 120 mins by LC-MS analysis; format: ADME, cell-based, Hepatocyte
[14] = Metabolic stability in human hepatocytes assessed as intrinsic clearance measured per million cells at 10 uM measured after 120 mins by LC-MS analysis; format: ADME, cell-based, Hepatocyte; details: read-out: CLH
[15] = Solubility of compound in phosphate buffer at pH 7.2 to 7.4; format: physicochemical
[16] = target: T4, Nucleotide-binding oligomerization domain-containing protein 2 (Mus musculus) (UniProt Q8K3Z0); assay: Inhibition of mouse NOD2 at 1 uM relative to control
T4 sequence (whole entry): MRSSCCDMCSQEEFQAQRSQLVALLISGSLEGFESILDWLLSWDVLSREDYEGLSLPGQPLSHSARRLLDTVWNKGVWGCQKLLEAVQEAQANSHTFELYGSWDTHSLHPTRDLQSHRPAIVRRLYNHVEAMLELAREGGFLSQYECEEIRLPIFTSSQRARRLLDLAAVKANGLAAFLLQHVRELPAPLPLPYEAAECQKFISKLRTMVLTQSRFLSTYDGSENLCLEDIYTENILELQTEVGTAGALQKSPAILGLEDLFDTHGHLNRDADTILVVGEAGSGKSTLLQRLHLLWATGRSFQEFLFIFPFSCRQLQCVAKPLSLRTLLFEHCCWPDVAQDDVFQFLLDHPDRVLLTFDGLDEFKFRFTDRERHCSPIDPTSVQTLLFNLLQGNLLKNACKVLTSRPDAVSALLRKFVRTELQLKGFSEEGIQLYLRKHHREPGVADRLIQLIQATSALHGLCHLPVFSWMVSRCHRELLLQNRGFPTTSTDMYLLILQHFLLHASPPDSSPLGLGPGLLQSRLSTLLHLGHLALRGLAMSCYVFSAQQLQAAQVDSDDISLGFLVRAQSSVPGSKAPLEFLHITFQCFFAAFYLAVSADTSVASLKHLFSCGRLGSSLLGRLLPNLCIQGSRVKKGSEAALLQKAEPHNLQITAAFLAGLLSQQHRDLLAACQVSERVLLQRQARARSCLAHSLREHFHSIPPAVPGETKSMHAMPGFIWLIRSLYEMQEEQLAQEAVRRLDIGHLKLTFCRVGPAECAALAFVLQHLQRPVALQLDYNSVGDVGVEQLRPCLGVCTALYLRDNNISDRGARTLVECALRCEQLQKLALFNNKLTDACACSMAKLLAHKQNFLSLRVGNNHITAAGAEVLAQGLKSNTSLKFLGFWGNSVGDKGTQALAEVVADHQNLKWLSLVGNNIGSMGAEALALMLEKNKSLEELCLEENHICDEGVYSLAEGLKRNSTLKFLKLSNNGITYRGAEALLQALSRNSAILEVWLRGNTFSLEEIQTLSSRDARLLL

[17] = target: T5, Nucleotide-binding oligomerization domain-containing protein 2 (Homo sapiens, UniProt Q9HC29); assay: Inhibition of human NOD2 at 1 uM relative to control
[18] = target: Receptor-interacting serine/threonine-protein kinase 2 (Homo sapiens) (UniProt O43353); assay: Inhibition of RIP2 (unknown origin) at 10 uM relative to control
[19] = target: Toll-like receptor 4 (Homo sapiens) (UniProt O00206); assay: Inhibition of human TLR4 at 1 uM relative to control
[20] = target: T5, Nucleotide-binding oligomerization domain-containing protein 2; assay: Antagonist activity at human NOD2 expressed in HEK293 cells assessed as decrease in MDP-stimulated IL-8 release incubated for 24 hrs by fluorescence based assay; format: cell-based
[21] = target: T3, Nucleotide-binding oligomerization domain-containing protein 1 (Mus musculus); assay: Antagonist activity at mouse NOD1 expressed in HEK-Blue cells assessed as decrease in SEAP secretion at 5 uM incubated for 3 hrs followed by C12-iE-DAP stimulation for 20 hrs by spectrophotometry relative to control; format: cell-based; details: HEK-Blue mNOD1, filed as antagonist, time 23.0 hrs

T5 sequence (Q9HC29 whole entry, the tested form may be a part): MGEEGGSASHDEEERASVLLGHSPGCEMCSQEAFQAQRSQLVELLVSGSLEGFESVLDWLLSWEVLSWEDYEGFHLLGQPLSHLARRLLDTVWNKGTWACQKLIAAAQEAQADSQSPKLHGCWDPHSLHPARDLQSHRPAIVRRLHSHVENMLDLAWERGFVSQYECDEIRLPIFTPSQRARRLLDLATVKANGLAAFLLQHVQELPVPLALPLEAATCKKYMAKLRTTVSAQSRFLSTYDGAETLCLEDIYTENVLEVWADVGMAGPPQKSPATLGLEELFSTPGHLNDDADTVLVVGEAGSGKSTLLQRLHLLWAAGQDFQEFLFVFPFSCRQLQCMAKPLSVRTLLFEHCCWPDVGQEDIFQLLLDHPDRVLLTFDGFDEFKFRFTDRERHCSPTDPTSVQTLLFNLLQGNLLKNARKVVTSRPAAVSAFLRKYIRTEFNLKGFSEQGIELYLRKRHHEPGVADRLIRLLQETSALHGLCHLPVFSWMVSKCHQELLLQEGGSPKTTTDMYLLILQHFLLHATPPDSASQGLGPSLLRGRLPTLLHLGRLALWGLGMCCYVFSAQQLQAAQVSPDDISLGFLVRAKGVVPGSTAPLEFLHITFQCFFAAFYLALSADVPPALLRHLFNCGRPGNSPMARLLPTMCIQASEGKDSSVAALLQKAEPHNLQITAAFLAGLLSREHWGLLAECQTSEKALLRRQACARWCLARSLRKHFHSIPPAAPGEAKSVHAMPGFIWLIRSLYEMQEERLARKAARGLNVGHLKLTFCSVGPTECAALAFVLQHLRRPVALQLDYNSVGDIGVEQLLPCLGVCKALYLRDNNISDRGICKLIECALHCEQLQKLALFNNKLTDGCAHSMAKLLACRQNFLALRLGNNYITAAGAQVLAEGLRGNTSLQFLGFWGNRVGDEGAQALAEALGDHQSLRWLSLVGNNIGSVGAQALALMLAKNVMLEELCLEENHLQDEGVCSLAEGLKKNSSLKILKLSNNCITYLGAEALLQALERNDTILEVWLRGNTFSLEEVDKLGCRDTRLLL
Toll-like receptor 4 (Homo sapiens), sequence (O00206 whole entry, the tested form may be a part): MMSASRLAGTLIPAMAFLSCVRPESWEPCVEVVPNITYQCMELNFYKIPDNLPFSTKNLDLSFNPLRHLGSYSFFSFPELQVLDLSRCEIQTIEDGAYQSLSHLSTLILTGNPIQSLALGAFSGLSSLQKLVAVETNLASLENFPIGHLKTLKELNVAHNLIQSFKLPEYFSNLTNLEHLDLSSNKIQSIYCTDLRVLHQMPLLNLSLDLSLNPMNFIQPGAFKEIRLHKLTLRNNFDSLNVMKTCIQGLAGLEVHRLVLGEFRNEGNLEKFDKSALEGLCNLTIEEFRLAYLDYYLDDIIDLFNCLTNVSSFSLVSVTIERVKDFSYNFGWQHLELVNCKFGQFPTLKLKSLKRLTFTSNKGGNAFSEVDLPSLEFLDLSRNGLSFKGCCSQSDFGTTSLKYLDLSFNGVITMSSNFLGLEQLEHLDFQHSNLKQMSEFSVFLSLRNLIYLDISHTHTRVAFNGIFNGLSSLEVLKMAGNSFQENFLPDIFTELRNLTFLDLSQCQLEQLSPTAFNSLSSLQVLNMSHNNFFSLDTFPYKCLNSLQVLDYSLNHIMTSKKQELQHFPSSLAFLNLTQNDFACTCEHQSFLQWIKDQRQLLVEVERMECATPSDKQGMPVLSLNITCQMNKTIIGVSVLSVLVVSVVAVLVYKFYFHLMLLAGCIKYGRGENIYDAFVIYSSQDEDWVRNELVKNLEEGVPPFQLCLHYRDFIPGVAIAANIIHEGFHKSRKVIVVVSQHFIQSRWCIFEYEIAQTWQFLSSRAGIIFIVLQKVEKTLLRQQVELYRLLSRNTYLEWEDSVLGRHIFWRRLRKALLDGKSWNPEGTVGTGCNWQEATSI
Receptor-interacting serine/threonine-protein kinase 2 (Homo sapiens), sequence (O43353 whole entry): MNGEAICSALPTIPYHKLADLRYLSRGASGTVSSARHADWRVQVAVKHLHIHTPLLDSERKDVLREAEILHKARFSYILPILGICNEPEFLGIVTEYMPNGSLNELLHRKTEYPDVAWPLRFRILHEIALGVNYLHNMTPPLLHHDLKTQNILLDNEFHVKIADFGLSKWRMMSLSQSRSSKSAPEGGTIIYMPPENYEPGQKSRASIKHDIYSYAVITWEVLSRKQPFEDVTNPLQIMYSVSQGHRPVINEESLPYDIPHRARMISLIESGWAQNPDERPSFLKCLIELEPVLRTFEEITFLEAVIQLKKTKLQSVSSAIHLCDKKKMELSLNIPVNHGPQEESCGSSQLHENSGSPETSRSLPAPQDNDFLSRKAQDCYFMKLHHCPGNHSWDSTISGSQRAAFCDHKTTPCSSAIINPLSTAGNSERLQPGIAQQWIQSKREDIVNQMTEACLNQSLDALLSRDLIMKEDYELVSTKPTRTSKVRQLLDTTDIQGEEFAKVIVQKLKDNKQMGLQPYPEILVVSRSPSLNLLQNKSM

Structure (SMILES)	IC50 [1] [nM]	IC50 [2] [nM]	inhibition [3] [%]	half-life at 1.25 µM [4] [min]	microsomal CLint at 1.25 µM [5] [µL/min/mg]	CLhep predicted at 1.25 µM [6] [mL/min/kg]	half-life at 1.25 µM [7] [min]	microsomal CLint at 1.25 µM [8] [µL/min/mg]	CLhep predicted at 1.25 µM [9] [mL/min/kg]	inhibition [21] [%]	further results
O=c1c2ccncc2nc(Cl)n1-c1ccc(Cl)c(NS(=O)(=O)c2ccccc2F)c1	4.1	344	83.9	> 186	< 7.4	< 6.1	> 186	< 7.4	< 22.1		CLH [10]: 307.2 µL/min; half-life at 10 µM [11]: 2.3 min; CLhep predicted at 10 µM [12]: 18.6 mL/min/kg; half-life at 10 µM [13]: 11.6 min; hepatocyte CLint at 10 µM [14]: 59.5 µL/min/1e6 cells
O=c1c2nc(Cl)ccc2nc(Cl)n1-c1ccc(Cl)c(NS(=O)(=O)c2ccccc2F)c1	11	193	84.6	104	13.4	8.9	39.1	35.4	54.7		
CS(=O)(=O)c1ccc2nc(Cl)n(-c3ccc(Cl)c(NS(=O)(=O)c4ccccc4C#N)c3)c(=O)c2c1		66					20.6				solubility [15]: 34.2 µg/mL (≈ 62.2 µM)
O=c1c2ccncc2nc(Cl)n1-c1ccc(Cl)c(NS(=O)(=O)c2c(F)cccc2F)c1	5.2	77	83.7								inhibition [16]: < 10%; inhibition [17]: < 10%; inhibition [18]: < 10%; inhibition [19]: < 10%; solubility [15]: 5.7 µg/mL (≈ 11.8 µM)
Cc1nc2ccc(NC(=O)c3cccc(NS(=O)(=O)c4ccc(F)cc4)c3)cc2s1											IC50 [20]: > 50000 nM
O=c1c2cc(Cl)cnc2nc(Cl)n1-c1ccc(Cl)c(NS(=O)(=O)c2ccccc2F)c1		187	84.3	28	49.4	15.2	13.9	99.9	73.2		

Continued, in another order:

IC50 [1] [nM]	IC50 [2] [nM]	inhibition [3] [%]	half-life at 1.25 µM [4] [min]	microsomal CLint at 1.25 µM [5] [µL/min/mg]	CLhep predicted at 1.25 µM [6] [mL/min/kg]	half-life at 1.25 µM [7] [min]	microsomal CLint at 1.25 µM [8] [µL/min/mg]	CLhep predicted at 1.25 µM [9] [mL/min/kg]	inhibition [21] [%]	Structure (SMILES)	further results
	6920								49.4	Cc1nc2ccc(Cl)cc2c(=O)n1-c1ccc(Cl)c(NS(=O)(=O)c2ccccc2F)c1	IC50 [20]: > 20000 nM; inhibition [17]: < 10%
68	5900								73.2	O=c1c2cc(Cl)ccc2nc(C(F)(F)F)n1-c1ccc(Cl)c(NS(=O)(=O)c2ccccc2F)c1	
40	2630	42.7							67.4	O=c1c2cc(Cl)ccc2nc(Cl)n1-c1ccc(Cl)c(NS(=O)(=O)c2ccccc2F)c1	
1.8	118	85.6	115	12	8.3	53	26.2	48		O=c1c2cc(Cl)ncc2nc(Cl)n1-c1ccc(Cl)c(NS(=O)(=O)c2ccccc2F)c1	
